One molecule from patent publication US20050074820A1, “Method for the immunohistological detection of fibrogenesis in histological tissue sections using antiboides against C-terminal procollagen alpha1 (III) propeptide” (priority 2001, published 2005) can be followed below.

One test concerns α-SMA. Put plainly: Quantitative immunostain of α-SMA in liver tissue sections (image analysis). The conditions noted are these: for α-SMA expression (stained area over total area): all lamivudine patients; for α-SMA expression: lamivudine-treated, Pre. It is filed as in vivo, human. The method, then:
(§1) Paraffin-embedded tissue sections were stained for α-smooth muscle actin (α-SMA) or PIIICP (FIG. 2). The staining procedure was carried out using the DAKO Envision System (DAKO; Carpinteria, Calif., USA). After inhibiting endogenous peroxidase with Peroxidase Blocking Agent (DAKO) the tissue sections were incubated for 10 minutes at room temperature with a murine monoclonal anti-α-SMA antibody (diluted 1:200 in PBS+1% BSA) or with a murine monoclonal anti-PIIICP antibody (antibody concentration 5 mg/ml; diluted 1:100 in PBS+1% BSA). After the incubation, the sections were washed twice with PBS buffer for 3 minutes, respectively. The tissue sections were then incubated with labelled polymer (peroxidase-labelled polymer conjugated with anti-rabbit and anti-mouse immunoglobulins from the goat) at room temperature for 10 minutes. After washing twice with PBS buffer the tissue sections were incubated with 3,3-diaminobenzidine (DAB) substrate for 8 minutes, rinsed with water and exposed to DAB Enhancer (Innovex Bioscience; Richmond, Calif., USA) for 5 minutes and subsequently rinsed with water again. Counterstaining was performed with hematoxyline. As a negative control all samples were incubated with 1% BSA solution instead of antibody.
(§2) The stained parenchymal areas on the tissue sections, that are formed by α-SMA or PIIICP-positive hepatic stellate cells, were quantified with the Bioquant TCW 98 image analysis program (Bioquant Image Analysis; www.bioquant.com) with the connected Computer as well as with an Olympus microscope. The results were stated as the percent ratio between the stained area and the total area.
(§3) The immunohistochemical quantification was futhermore correlated with changes of individual components of the histological activity index (HAI) or with entire HAI. For the individual patients in both treatment groups—lamivudine or placebo, respectively—the change of α-SMA- or PIIICP-stained areas was calculated according to: ΔSMA (or ΔPIIICP)=percent area before treatment minus percent […]. The mean change was compared between the lamivudine-treated and the placebo-treated groups using Student's t-Test.

Test [1] concerns patients with chronic hepatitis B. Put plainly: Serum ALT before and after 52 weeks of treatment, phase III trials. Format: in vivo, human.
Another test deals with PIIICP. Briefly: Quantitative immunostain of PIIICP in liver tissue sections (image analysis). Format: in vivo, human. The conditions noted are these: for PIIICP expression (stained area over total area): all lamivudine patients; for PIIICP expression: lamivudine-treated, Pre. The method, then: as §1, §2, §3
In test [2] the test system is hepatitis B e-antigen (HBeAg). Put plainly: Loss of hepatitis B e-antigen under treatment. It is filed as in vivo, hepatitis B virus. The conditions noted are these: lamivudine 100 mg daily, 52 weeks; versus 9% placebo, p<0.05. The source says:
The liver tissue samples were examined by a pathologist. […] A reduction of the HAI by 2 points HAI is considered a significant change in hepatic histology after the termination of the treatment.
The baselines and the quantitative immunostains against α-SMA und PIIICP were compared between lamivudine und placebo patients using Student's t-tests. In addition, the results of the immunostains were correlated with the loss of the hepatitis B e-antigen (HBeAg) using the Mantel-Haenszel chi square test.

For test [3], the system named is hepatitis B virus (HBV) DNA. Briefly: HBV DNA concentration before and after treatment. Format: in vivo.
[4] abbreviates: lamivudine group n = 47, Post (100 mg daily, 52 weeks).

Take `Nc1ccn([C@@H]2CS[C@H](CO)O2)c(=O)n1` [Lamivudine, lamivudine]: the “α-SMA expression (stained area over total area)” value in the test with α-SMA (after treatment) stood at 0.58±0.11%; in the test on α-SMA (before treatment), 1.06±0.23%. The α-SMA expression with α-SMA (HbeAg loss (n = 17)) was determined as 1.46; with α-SMA (No loss of HbeAg (n = 30)), 0.83. The “ALT (mean ± SD)” value in test [1] (chronic hepatitis B patients, lamivudine group n = 47, Pre (before treatment)) came to 154 ± 100 IU/l; in test [1] (setting [4]), 60.7 ± 55 IU/l. In addition, the “PIIICP expression (stained area over total area)” value came to 0.02% with PIIICP (after lamivudine) and 0.06% with PIIICP (before lamivudine). In addition, the PIIICP expression in the test on PIIICP (HbeAg loss (n = 17)) amounted to 0.10; with PIIICP (No loss of HbeAg (n = 30)) it was 0.03. For the same molecule, the “patients who lost the HbeAg” value in test [2] came to 36.2%. Moreover, the “HBV DNA” value in test [3] (setting [4]) is 33 ± 120 pg/mL; in test [3] (lamivudine group n = 47, Pre (before treatment)), 180 ± 211^ψ pg/ml.
